Experimental data reported in patent US11045457B2, “Piperidinyl-3-(aryloxy)propanamides and propanoates” (priority 2018, dated 2021).

Assays:
SSTR4 [1] = target: T1, SSTR4 (Homo sapiens (Human), UniProt P31391); assay: SSTR4 I-125 somatostatin competition binding assay (membranes from CHO-K1 cells overexpressing SSTR4); settings: competition with I-125 labeled somatostatin; for IC50: read-out: SSTR4 Binding pIC50 (converted)
Experimental: Membranes from CHO-K1 cells overexpressing SSTR4 are purchased from Perkin Elmer (catalog number ES-524-M400UA). Test compounds are suspended in DMSO and then diluted in assay buffer (25 mM HEPES pH 7.4, 10 mM MgCl2, 1 mM CaCl2), 0.5% BSA) plus 0.2 nM I-125 labeled somatostatin (Perkin Elmer catalog number NEX389). […] Then 1 μg of SSTR4 membranes in 50 μL assay buffer are added per well. The Plate is incubated for 60 minutes at room temperature. FilterMat A filters (Perkin Elmer catalog number 1450-421) are pre-soaked in 0.5% PEI (Sigma catalog number P3143). The contents of the assay plate are transferred to filters with a TomTech harvester and washed 5 times with 20 mM HEPES, 100 mM NaCl. The filters are dried in a microwave oven then transferred to sample bag containing a scintillator sheet (Perkin Elmer catalog number 1450-441). The scintillator sheets are melted to filters using a heat block. The filters are then read in a MicroBeta scintillation counter. Binding Ki curves are generated using Activity Base for Screening Data Management and the results are reported as pIC50.

SSTR4 [2] = target: T1, SSTR4; assay: Inhibition of forskolin stimulated cAMP in CHO-K1 cells overexpressing SSTR4; format: cell-based; settings: for EC50: read-out: SSTR4 Activity pEC50 (converted)
In short: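 Read-out is a HTRF LANCE Ultra cAMP competition using Eu-labelled streptavidin and biotin-cAMP, incubated 60 min at room temperature. It followed a 30 min room-temperature exposure of Kreb's Ringer-washed cells to compound plus forskolin. Potency is expressed as pEC50.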

SSTR1 = SSTR1 (Homo sapiens (Human), UniProt P30872); assay: SSTR1 I-125 somatostatin competition binding assay for selectivity versus SSTR4 (membranes from CHO-K1 cells overexpressing SSTR1); settings: for SSTR1 Binding pIC50: competition with I-125 labeled somatostatin, CHO-K1 SSTR1 membranes;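 for all read-outs here: Filter-based radioligand binding, bound label counted by scintillation after 60 min incubation at room temperature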
Sequence of SSTR1 (P30872 whole entry): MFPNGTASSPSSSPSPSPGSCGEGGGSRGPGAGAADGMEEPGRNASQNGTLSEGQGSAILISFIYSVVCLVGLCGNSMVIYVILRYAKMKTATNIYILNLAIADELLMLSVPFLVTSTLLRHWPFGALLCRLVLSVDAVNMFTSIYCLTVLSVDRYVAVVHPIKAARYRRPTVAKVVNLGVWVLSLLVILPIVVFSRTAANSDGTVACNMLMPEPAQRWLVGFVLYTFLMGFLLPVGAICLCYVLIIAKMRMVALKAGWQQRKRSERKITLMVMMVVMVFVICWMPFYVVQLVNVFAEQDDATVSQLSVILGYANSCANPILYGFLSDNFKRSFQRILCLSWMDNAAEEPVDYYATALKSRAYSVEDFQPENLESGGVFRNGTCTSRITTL
Experimental: Membranes from CHO-K1 cells overexpressing SSTR1 are purchased from Perkin Elmer (catalog number ES-520-M400UA). […] Then 10 μg of SSTR1 membranes in 50 μL assay buffer are added per well. The plate is incubated for 60 minutes at room temperature. […] The contents of the assay plate are transferred to filters with a TomTech harvester and washed 5 times with 20 mM HEPES, 100 mM NaCl. […] The scintillator sheets are melted to the filters using a heat block. The filters are then read in a MicroBeta scintillation counter. Binding Ki curves are generated using Activity Base for Screening Data Management and the results are reported as pIC50.

T1 sequence (P31391 whole entry): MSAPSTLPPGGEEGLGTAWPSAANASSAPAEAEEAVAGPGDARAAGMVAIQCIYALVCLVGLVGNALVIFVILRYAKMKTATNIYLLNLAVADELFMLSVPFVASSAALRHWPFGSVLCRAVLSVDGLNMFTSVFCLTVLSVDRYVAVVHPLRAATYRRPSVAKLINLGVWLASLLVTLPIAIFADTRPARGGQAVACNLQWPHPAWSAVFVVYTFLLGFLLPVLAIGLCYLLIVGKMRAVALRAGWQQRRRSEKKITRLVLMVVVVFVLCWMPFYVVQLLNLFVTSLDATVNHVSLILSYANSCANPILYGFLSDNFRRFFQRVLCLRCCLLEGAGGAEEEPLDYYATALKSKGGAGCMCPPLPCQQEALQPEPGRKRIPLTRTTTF

| SMILES | SSTR4 Binding pIC50 (SSTR4 [1]) | SSTR4 Activity pEC50 (SSTR4 [2]) | SSTR1 Binding pIC50 (SSTR1) | IC50 (SSTR4 [1]) [nM] | EC50 (SSTR4 [2]) [nM] | IC50 (SSTR1) [nM] |
| --- | --- | --- | --- | --- | --- | --- |
| Cc1nn(C)cc1[C@@H]1CN(C)C[C@H]1NC(=O)C(C)(C)COc1ncccc1C(F)(F)F (relative stereo) [Example 25, trans-N-(4-(1,3-dimethyl-1H-pyrazol-4-yl)-1-methylpyrrolidin-3-yl)-2,2-dimethyl-3-((3-(trifluoromethyl)pyridin-2-yl)oxy)propanamide] | 7.0 | 8.3 | 6.4 |  |  |  |
| CN1C[C@H](NC(=O)C(C)(C)COc2ncccc2C(F)(F)F)C2(CC2)C1 [Example 148, (R)-2,2-dimethyl-N-(5-methyl-5-azaspiro[2.4]heptan-7-yl)-3-((3-(trifluoromethyl)pyridin-2-yl)oxy)propanamide] | 7.4 | 8.1 | 5.8 |  |  |  |
| C[C@H]1CNCC[C@@H]1NC(=O)C(F)(F)COc1ncccc1C(F)(F)F [Example 208, 2,2-difluoro-N-((3S,4S)-3-methylpiperidin-4-yl)-3-((3-(trifluoromethyl)pyridin-2-yl)oxy)propanamide] | 7.1 | 8.6 | 4.4 |  |  |  |
| Cc1cccnc1OCC(C)(C)C(=O)N[C@@H]1CN(C)C[C@H]1c1cnn(C)c1C (relative stereo) [Example 26, trans-N-(4-(1,5-dimethyl-1H-pyrazol-4-yl)-1-methylpyrrolidin-3-yl)-2,2-dimethyl-3-((3-methylpyridin-2-yl)oxy)propanamide] | 7.3 | 8.6 | 6.1 |  |  |  |
| C[C@H]1CNCC[C@@H]1NC(=O)C(F)(F)COc1ncccc1C1CC1 [Example 209, 3-((3-cyclopropylpyridin-2-yl)oxy)-2,2-difluoro-N-((3S,4S)-3-methylpiperidin-4-yl)propanamide] | 7.6 | 9.2 | 4.9 |  |  |  |
| Cc1ccccc1[C@@H]1CN(C)CC[C@H]1NC(=O)C(C)(C)COc1ncccc1C(F)(F)F (relative stereo) [Example 161, 2,2-dimethyl-N-(trans-1-methyl-3-(o-tolyl)piperidin-4-yl)-3-((3-(trifluoromethyl)pyridin-2-yl)oxy)propanamide] | 7.7 | 9.1 | 6.5 |  |  |  |
| CN1CC[C@H](NC(=O)C(C)(C)COc2ncccc2C2CC2)[C@@H](F)C1 [Example 123, 3-((3-cyclopropylpyridin-2-yl)oxy)-N-((3S,4S)-3-fluoro-1-methylpiperidin-4-yl)-2,2-dimethylpropanamide] | 7.2 | 7.8 | 4.9 |  |  |  |
| CN1CCC(NC(=O)C(C)(C)COc2ccccc2C2CC2)CC1 [Example 70, 3-(2-cyclopropylphenoxy)-2,2-dimethyl-N-(1-methylpiperidin-4-yl)propanamide] | 7.6 | 8.4 | 5.5 |  |  |  |
| C[C@H]1CN(C)CC[C@@H]1NC(=O)C(C)(C)COc1ccccc1F [Example 202, N-((3S,4S)-1,3-dimethylpiperidin-4-yl)-3-(2-fluorophenoxy)-2,2-dimethylpropanamide] | 7.0 | 7.1 | 5.0 |  |  |  |
| CN1CC[C@H](NC(=O)C(C)(C)COc2ncccc2C(F)(F)F)[C@@H](F)C1 [Example 117, N-((3S,4S)-3-fluoro-1-methylpiperidin-4-yl)-2,2-dimethyl-3-((3-(trifluoromethyl)pyridin-2-yl)oxy)propanamide] | 6.7 | 7.6 | 4.5 |  |  |  |
| C[C@H]1CNCC[C@@H]1NC(=O)C(F)(F)COc1ccccc1Cl [Example 216, 3-(2-chlorophenoxy)-2,2-difluoro-N-((3S,4S)-3-methylpiperidin-4-yl)propanamide] | 7.7 | 9.4 | 4.8 |  |  |  |
| Cc1nn(C)cc1[C@@H]1CN(C)C[C@H]1NC(=O)C(C)(C)COc1ncccc1OC(F)(F)F (relative stereo) [Example 29, trans-N-(4-(1,3-dimethyl-1H-pyrazol-4-yl)-1-methylpyrrolidin-3-yl)-2,2-dimethyl-3-((3-(trifluoromethoxy)pyridin-2-yl)oxy)propanamide] | 7.4 | 8.4 | 6.4 |  |  |  |
| CC[C@@H]1CN(C)CC[C@H]1NC(=O)C(C)(C)COc1ncccc1C (racemic) [Example 127, trans-N-(3-ethyl-1-methylpiperidin-4-yl)-2,2-dimethyl-3-((3-methylpyridin-2-yl)oxy)propanamide] |  |  |  | 79.4 | 12.6 | 7940 |
| Cc1ccccc1[C@@H]1CNCC[C@H]1OC(=O)C(C)(C)COc1ncccc1C(F)(F)F (racemic) [Example 168, trans-3-(o-tolyl)piperidin-4-yl 2,2-dimethyl-3-((3-(trifluoromethyl)pyridin-2-yl)oxy)propanoate] |  |  |  | 158 | 25.1 | 15800 |
| CN1CCC(NC(=O)C(C)(C)COc2ccccc2C(F)(F)F)CC1 [Example 64, 2,2-dimethyl-N-(1-methylpiperidin-4-yl)-3-(2-(trifluoromethyl)phenoxy)propanamide] | 7.0 | 7.9 | 5.1 |  |  |  |
| CN1CC[C@H](NC(=O)C(C)(C)COc2ncccc2OC(F)(F)F)[C@H](c2ccccc2)C1 (relative stereo) [Example 166, 2,2-dimethyl-N-(cis-1-methyl-3-phenylpiperidin-4-yl)-3-((3-(trifluoromethoxy)pyridin-2-yl)oxy)propanamide] | 7.4 |  | 6.2 |  |  |  |
| Cc1cccnc1OCC(C)(C)C(=O)N[C@@H]1CCN(C)C[C@H]1C (relative stereo) [Example 17, trans-N-(1,3-dimethylpiperidin-4-yl)-2,2-dimethyl-3-((3-methylpyridin-2-yl)oxy)propanamide] | 6.7 | 7.7 | 4.7 |  |  |  |
| CC(C)(COc1ccccc1Cl)C(=O)N[C@H]1CCNC[C@@H]1F [Example 187, 3-(2-chlorophenoxy)-N-((3S,4S)-3-fluoropiperidin-4-yl)-2,2-dimethylpropanamide] | 8.4 | 8.8 | 4.8 |  |  |  |
| CN1CC[C@@H](NC(=O)C(C)(C)COc2ncccc2C2CC2)C1 [Example 53, (R)-3-((3-cyclopropylpyridin-2-yl)oxy)-2,2-dimethyl-N-(1-methylpyrrolidin-3-yl)propanamide] | 6.6 | 7.4 | 4.6 |  |  |  |
| C[C@H]1CNCC[C@@H]1NC(=O)C(F)(F)COc1ncccc1OC(F)(F)F [Example 210, 2,2-difluoro-N-((3S,4S)-3-methylpiperidin-4-yl)-3-((3-(trifluoromethoxy)pyridin-2-yl)oxy)propanamide] | 7.6 | 9.1 | 4.5 |  |  |  |
| CN1CCC(NC(=O)C(C)(C)COc2ncccc2C(F)(F)F)CC1 [Example 41, 2,2-dimethyl-N-(1-methylpiperidin-4-yl)-3-((3-(trifluoromethyl)pyridin-2-yl)oxy)propanamide] | 6.4 | 7.4 | 4.2 |  |  |  |
| CCc1ccccc1OCC(C)(C)C(=O)NC1CCN(C)CC1 [Example 72, 3-(2-ethylphenoxy)-2,2-dimethyl-N-(1-methylpiperidin-4-yl)propanamide] | 7.1 | 8.1 | 4.8 |  |  |  |
| C[C@@H]1CN(C)CC[C@H]1NC(=O)C(C)(C)COc1ncccc1C1CC1 (relative stereo) [Example 20, trans-3-((3-cyclopropylpyridin-2-yl)oxy)-N-(1,3-dimethylpiperidin-4-yl)-2,2-dimethylpropanamide] | 7.2 | 8.3 |  |  |  |  |
| C[C@H]1C[C@@H](NC(=O)C(C)(C)COc2ncccc2C(F)(F)F)CCN1C (relative stereo) [Example 129, cis-N-(1,2-dimethylpiperidin-4-yl)-2,2-dimethyl-3-((3-(trifluoromethyl)pyridin-2-yl)oxy)propanamide] | 6.8 | 7.7 |  |  |  |  |
| C[C@H]1C[C@@H](NC(=O)C(F)(F)COc2ncccc2C(F)(F)F)CCN1C (racemic) [Example 191, cis-N-(1,2-dimethylpiperidin-4-yl)-2,2-difluoro-3-((3-(trifluoromethyl)pyridin-2-yl)oxy)propanamide] |  |  |  | 200 | 79.4 |  |
| C[C@@H]1CN(C)CC[C@H]1NC(=O)C(C)(C)COc1ncccc1C(F)(F)F (relative stereo) [Example 11, trans-N-(1,3-dimethylpiperidin-4-yl)-2,2-dimethyl-3-((3-(trifluoromethyl)pyridin-2-yl)oxy)propanamide] | 7.0 | 8.0 |  |  |  |  |
| C[C@H]1CN(C)CC[C@@H]1NC(=O)C(C)(C)COc1ncccc1C(F)(F)F [Example 105, N-((3S,4S)-1,3-dimethylpiperidin-4-yl)-2,2-dimethyl-3-((3-(trifluoromethyl)pyridin-2-yl)oxy)propanamide] | 7.2 | 8.1 |  |  |  |  |
| CN1CCC(NC(=O)C(F)(F)COc2ccccc2Cl)CC1 [Example 215, 3-(2-chlorophenoxy)-2,2-difluoro-N-(1-methylpiperidin-4-yl)propanamide] | 6.0 | 6.7 |  |  |  |  |
